Experimental data reported in PubChem BioAssay AID248 (DTP/NCI, 2004).
“And” between values parts separate entries of the source, which are not always exact repeats. Equal values may be shown once. Toxic doses and inconclusive results are not listed. Cut-off read from the data, not from the text of the source: active = T/C of 150% or more; inactive = T/C below 125%.

Tested on: L1210 leukemia ip in BDF1 mice, survival T/C
Experiment: NCI In Vivo Anticancer Drug Screen. Data for tumor model L1210 Leukemia (intraperitoneal) in B6D2F1 (BDF1) mice
Conditions: higher = longer survival
In short: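 Read-out is survival time, reported as the treated-group measurement over the vehicle-control measurement.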

[1] = endpoint: mean survival time, dose: 100.0 mg/kg/injection, schedule: Q01DX001 (ip), vehicle: saline
[2] = endpoint: mean survival time, dose: 200.0 mg/kg/injection, schedule: Q01DX001 (ip), vehicle: saline
[3] = endpoint: mean survival time, dose: 400.0 mg/kg/injection, schedule: Q01DX001 (ip), vehicle: saline
[4] = endpoint: mean survival time, dose: 100.0 mg/kg/injection, schedule: Q04DX003 (ip), vehicle: saline with Tween-80
[5] = endpoint: mean survival time, dose: 200.0 mg/kg/injection, schedule: Q04DX003 (ip), vehicle: saline with Tween-80
[6] = endpoint: mean survival time, dose: 400.0 mg/kg/injection, schedule: Q04DX003 (ip), vehicle: saline with Tween-80
[7] = endpoint: mean survival time, dose: 100.0 mg/kg/injection, schedule: Q01DX009 (ip), vehicle: Klucel (hydroxypropylcellulose) (HPC)
[8] = endpoint: mean survival time, dose: 100.0 mg/kg/injection, schedule: Q04DX003 (ip), vehicle: Klucel (hydroxypropylcellulose) (HPC)
[9] = endpoint: mean survival time, dose: 200.0 mg/kg/injection, schedule: Q01DX009 (ip), vehicle: Klucel (hydroxypropylcellulose) (HPC)
[10] = endpoint: mean survival time, dose: 200.0 mg/kg/injection, schedule: Q04DX003 (ip), vehicle: Klucel (hydroxypropylcellulose) (HPC)
[11] = endpoint: mean survival time, dose: 100.0 mg/kg/injection, schedule: Q01DX009 (ip), vehicle: saline with Tween-80
[12] = endpoint: mean survival time, dose: 200.0 mg/kg/injection, schedule: Q01DX009 (ip), vehicle: saline with Tween-80
[13] = endpoint: mean survival time, dose: 400.0 mg/kg/injection, schedule: Q01DX009 (ip), vehicle: saline with Tween-80

Measured: T/C

COc1cc(C(=O)OC2CC34CCNC35CC(OC5(OC)C2O)c2cc3c(cc24)OCO3)ccc1O (stereo unspecified)
inactive: endpoint: mean survival time, dose: 0.25 mg/kg/injection, schedule: Q01DX015 (ip), vehicle: carboxymethylcellulose (CMC) 100 % of control | endpoint: mean survival time, dose: 0.5 mg/kg/injection, schedule: Q01DX015 (ip), vehicle: carboxymethylcellulose (CMC) 100 % of control | endpoint: mean survival time, dose: 0.75 mg/kg/injection, schedule: Q01DX015 (ip), vehicle: carboxymethylcellulose (CMC) 103 % of control | endpoint: mean survival time, dose: 1.0 mg/kg/injection, schedule: Q01DX009 (ip), vehicle: carboxymethylcellulose (CMC) 95 % of control | endpoint: mean survival time, dose: 1.0 mg/kg/injection, schedule: Q01DX015 (ip), vehicle: carboxymethylcellulose (CMC) 104 % of control and 108 % of control | endpoint: mean survival time, dose: 1.25 mg/kg/injection, schedule: Q01DX015 (ip), vehicle: carboxymethylcellulose (CMC) 96 % of control | endpoint: mean survival time, dose: 1.5 mg/kg/injection, schedule: Q01DX015 (ip), vehicle: carboxymethylcellulose (CMC) 102 % of control | endpoint: mean survival time, dose: 1.75 mg/kg/injection, schedule: Q01DX015 (ip), vehicle: carboxymethylcellulose (CMC) 98 % of control | endpoint: mean survival time, dose: 2.0 mg/kg/injection, schedule: Q01DX009 (ip), vehicle: carboxymethylcellulose (CMC) 92 % of control | endpoint: mean survival time, dose: 2.0 mg/kg/injection, schedule: Q01DX015 (ip), vehicle: carboxymethylcellulose (CMC) 93 % of control | endpoint: mean survival time, dose: 2.5 mg/kg/injection, schedule: Q01DX015 (ip), vehicle: carboxymethylcellulose (CMC) 96 % of control

CS(C)=O
inactive: [1] 112 % of control | [2] 102 % of control | [3] 106 % of control | endpoint: mean survival time, dose: 1500.0 mg/kg/injection, schedule: Q01DX Z (ip), vehicle: other 98 % of control | endpoint: mean survival time, dose: 1.6 grams/kg/injection, schedule: Q03HX008 (ip), vehicle: saline 97 % of control | endpoint: mean survival time, dose: 1.6 grams/kg/injection, schedule: Q03HX016 (ip), vehicle: saline 101 % of control | endpoint: mean survival time, dose: 1.6 grams/kg/injection, schedule: Q03HX024 (ip), vehicle: saline 105 % of control | endpoint: mean survival time, dose: 3000.0 mg/kg/injection, schedule: Q01DX Z (ip), vehicle: other 98 % of control | endpoint: mean survival time, dose: 3.1 grams/kg/injection, schedule: Q01DX001 (ip), vehicle: saline 104 % of control | endpoint: mean survival time, dose: 3.1 grams/kg/injection, schedule: Q01DX009 (ip), vehicle: saline 100 % of control | endpoint: mean survival time, dose: 3.1 grams/kg/injection, schedule: Q03HX008 (ip), vehicle: saline 91 % of control | endpoint: mean survival time, dose: 3.1 grams/kg/injection, schedule: Q03HX024 (ip), vehicle: saline 110 % of control | endpoint: mean survival time, dose: 3.1 grams/kg/injection, schedule: Q04DX003 (ip), vehicle: saline 95 % of control | endpoint: mean survival time, dose: 3.1 grams/kg/injection, schedule: Q08DX002 (ip), vehicle: saline 98 % of control | endpoint: mean survival time, dose: 6.3 grams/kg/injection, schedule: Q01DX001 (ip), vehicle: saline 100 % of control | endpoint: mean survival time, dose: 6.3 grams/kg/injection, schedule: Q01DX009 (ip), vehicle: saline 97 % of control | endpoint: mean survival time, dose: 6.3 grams/kg/injection, schedule: Q04DX003 (ip), vehicle: saline 95 % of control | endpoint: mean survival time, dose: 6.3 grams/kg/injection, schedule: Q08DX002 (ip), vehicle: saline 96 % of control | endpoint: median survival time, dose: 0.5 mg/kg/injection, schedule: Q#C X009 (adlb), vehicle: water 106 % of control | endpoint: median survival time, dose: 1.0 mg/kg/injection, schedule: Q01DX019 (adlb), vehicle: water 92 % of control | endpoint: median survival time, dose: 1.0 mg/kg/injection, schedule: Q#C X009 (adlb), vehicle: water 102 % of control | endpoint: median survival time, dose: 2.0 mg/kg/injection, schedule: Q01DX019 (adlb), vehicle: water 97 % of control | endpoint: median survival time, dose: 2.0 mg/kg/injection, schedule: Q#C X009 (adlb), vehicle: water 107 % of control | endpoint: median survival time, dose: 4.0 mg/kg/injection, schedule: Q01DX019 (adlb), vehicle: water 99 % of control | endpoint: median survival time, dose: 4.0 mg/kg/injection, schedule: Q#C X009 (adlb), vehicle: water 101 % of control | endpoint: median survival time, dose: 8.0 mg/kg/injection, schedule: Q#C X009 (adlb), vehicle: water 103 % of control

CC(C)CCCC(C)C1CCC2C3CCC4CC(I)CCC4(C)C3CCC12C (stereo unspecified)
inactive: endpoint: mean survival time, dose: 100.0 mg/kg/injection, schedule: Q01DX001 (ip), vehicle: saline with Tween-80 93 % of control | endpoint: mean survival time, dose: 200.0 mg/kg/injection, schedule: Q01DX001 (ip), vehicle: saline with Tween-80 95 % of control | endpoint: mean survival time, dose: 400.0 mg/kg/injection, schedule: Q01DX001 (ip), vehicle: saline with Tween-80 90 % of control

CCOC(=O)C1CC2CC(C1=O)C2(C)C (stereo unspecified)
inactive: [4] 96 % of control | [5] 101 % of control | [6] 93 % of control

Cc1ccccc1SCN(CSc1ccccc1C)C(C)(C)CC(C)(C)C
inactive: endpoint: mean survival time, dose: 100.0 mg/kg/injection, schedule: Q01DX001 (ip), vehicle: carboxymethylcellulose (CMC) 101 % of control

CCOC(=O)C1C(=O)CC(=O)C(C(=O)OCC)C1c1ccc(O)cc1 (stereo unspecified)
inactive: [7] 95 % of control | [8] 97 % of control | [9] 98 % of control | [10] 104 % of control | endpoint: mean survival time, dose: 400.0 mg/kg/injection, schedule: Q01DX009 (ip), vehicle: Klucel (hydroxypropylcellulose) (HPC) 97 % of control | endpoint: mean survival time, dose: 400.0 mg/kg/injection, schedule: Q04DX003 (ip), vehicle: Klucel (hydroxypropylcellulose) (HPC) 107 % of control

CN(C)S(=O)(=O)Oc1cccc([N+](=O)[O-])c1
inactive: endpoint: mean survival time, dose: 25.0 mg/kg/injection, schedule: Q04DX003 (ip), vehicle: saline with Tween-80 100 % of control | endpoint: mean survival time, dose: 50.0 mg/kg/injection, schedule: Q04DX003 (ip), vehicle: saline with Tween-80 104 % of control | [4] 100 % of control

c1ccc(N2CCN(c3ccccc3)CC2)cc1
inactive: [11] 98 % of control | [12] 86 % of control

CCCCCCCNC(C)(C)C(SS)c1ccc(Cl)cc1 (stereo unspecified)
inactive: endpoint: mean survival time, dose: 100.0 mg/kg/injection, schedule: Q01DX009 (sc), vehicle: olive oil, sesame oil, peanut oil 102 % of control | endpoint: mean survival time, dose: 200.0 mg/kg/injection, schedule: Q01DX009 (sc), vehicle: olive oil, sesame oil, peanut oil 100 % of control | endpoint: mean survival time, dose: 400.0 mg/kg/injection, schedule: Q01DX009 (sc), vehicle: olive oil, sesame oil, peanut oil 101 % of control

COc1cc(N)c(C(F)(F)F)cc1OC
inactive: [11] 96 % of control | [4] 103 % of control | [12] 94 % of control | [5] 105 % of control | [13] 104 % of control | [6] 104 % of control

COc1ccc(SC2CCCCC2OS(C)(=O)=O)cc1 (stereo unspecified)
inactive: endpoint: mean survival time, dose: 50.0 mg/kg/injection, schedule: Q01DX009 (ip), vehicle: Klucel (hydroxypropylcellulose) (HPC) 107 % of control | endpoint: mean survival time, dose: 50.0 mg/kg/injection, schedule: Q04DX003 (ip), vehicle: Klucel (hydroxypropylcellulose) (HPC) 102 % of control | endpoint: mean survival time, dose: 100.0 mg/kg/injection, schedule: Q01DX001 (ip), vehicle: Klucel (hydroxypropylcellulose) (HPC) 106 % of control | [7] 109 % of control | [8] 106 % of control | endpoint: mean survival time, dose: 200.0 mg/kg/injection, schedule: Q01DX001 (ip), vehicle: Klucel (hydroxypropylcellulose) (HPC) 95 % of control | [9] 98 % of control | [10] 104 % of control

COc1cc(OC(C)=O)c(OC(C)=O)cc1OC(C)=O
inactive: [11] 98 % of control | [12] 96 % of control | [13] 100 % of control

CC[C@H](CC[C@@H](C)C1CC[C@H]2[C@@H]3CCC4=CC(=O)CC[C@]4(C)[C@H]3CC[C@]12C)C(C)C (stereo partly specified)
inactive: [1] 98 % of control | [2] 95 % of control | [3] 97 % of control

CC1CN=C(c2cccc(NC(=O)c3ccc(C(=O)Nc4cccc(C5=NCC(C)N5)c4)c(N)c3)c2)N1 (stereo unspecified)
inactive: endpoint: mean survival time, dose: 1.25 mg/kg/injection, schedule: Q01DX Z (ip), vehicle: water 91 % of control | endpoint: mean survival time, dose: 2.5 mg/kg/injection, schedule: Q01DX Z (ip), vehicle: water 89 % of control

O=C(c1cccc(F)c1)C(F)(F)F
inactive: [7] 96 % of control | [9] 104 % of control | endpoint: mean survival time, dose: 300.0 mg/kg/injection, schedule: Q01DX009 (ip), vehicle: Klucel (hydroxypropylcellulose) (HPC) 93 % of control

NC(=S)NCCO
inactive: endpoint: mean survival time, dose: 100.0 mg/kg/injection, schedule: Q04DX003 (ip), vehicle: saline 105 % of control | endpoint: mean survival time, dose: 200.0 mg/kg/injection, schedule: Q04DX003 (ip), vehicle: saline 98 % of control | endpoint: mean survival time, dose: 400.0 mg/kg/injection, schedule: Q04DX003 (ip), vehicle: saline 100 % of control
